Source: ChEMBL document CHEMBL4261572, “Design, synthesis and biological evaluation of tacrine-1,2,3-triazole derivatives as potent cholinesterase inhibitors” (Medchemcomm, 2018)

Assays:
Cholinesterase [1] = molecular target: Cholinesterase (Equus caballus, UniProt P81908); assay: Inhibition of horse serum BChE after 15 mins by DTNB reagent based assay
Acetylcholinesterase [2] = molecular target: Acetylcholinesterase (Electrophorus electricus, UniProt O42275); assay: Inhibition of electric eel AChE after 15 mins by DTNB reagent based assay
Sequence of Acetylcholinesterase (Electrophorus electricus, UniProt O42275) (O42275 whole entry): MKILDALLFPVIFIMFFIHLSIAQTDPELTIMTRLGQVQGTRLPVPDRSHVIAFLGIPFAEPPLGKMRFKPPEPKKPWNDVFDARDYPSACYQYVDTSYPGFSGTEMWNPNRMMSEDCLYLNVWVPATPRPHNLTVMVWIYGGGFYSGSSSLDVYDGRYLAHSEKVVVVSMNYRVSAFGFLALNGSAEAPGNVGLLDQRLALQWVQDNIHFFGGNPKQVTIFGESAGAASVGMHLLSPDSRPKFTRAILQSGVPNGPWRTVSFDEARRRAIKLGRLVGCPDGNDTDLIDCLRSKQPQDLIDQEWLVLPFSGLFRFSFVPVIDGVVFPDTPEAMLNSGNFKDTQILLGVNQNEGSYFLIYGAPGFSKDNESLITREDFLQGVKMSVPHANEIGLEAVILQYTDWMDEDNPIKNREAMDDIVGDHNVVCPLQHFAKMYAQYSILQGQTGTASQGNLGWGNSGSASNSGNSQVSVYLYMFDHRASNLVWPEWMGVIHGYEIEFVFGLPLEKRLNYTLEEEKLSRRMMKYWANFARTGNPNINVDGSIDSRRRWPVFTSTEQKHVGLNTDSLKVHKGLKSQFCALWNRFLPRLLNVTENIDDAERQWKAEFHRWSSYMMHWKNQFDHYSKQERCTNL

Acetylcholinesterase [3] = molecular target: T1, Acetylcholinesterase (Rattus norvegicus, UniProt P37136); assay: Inhibition of rat brain AChE
T1 sequence (P37136 whole entry): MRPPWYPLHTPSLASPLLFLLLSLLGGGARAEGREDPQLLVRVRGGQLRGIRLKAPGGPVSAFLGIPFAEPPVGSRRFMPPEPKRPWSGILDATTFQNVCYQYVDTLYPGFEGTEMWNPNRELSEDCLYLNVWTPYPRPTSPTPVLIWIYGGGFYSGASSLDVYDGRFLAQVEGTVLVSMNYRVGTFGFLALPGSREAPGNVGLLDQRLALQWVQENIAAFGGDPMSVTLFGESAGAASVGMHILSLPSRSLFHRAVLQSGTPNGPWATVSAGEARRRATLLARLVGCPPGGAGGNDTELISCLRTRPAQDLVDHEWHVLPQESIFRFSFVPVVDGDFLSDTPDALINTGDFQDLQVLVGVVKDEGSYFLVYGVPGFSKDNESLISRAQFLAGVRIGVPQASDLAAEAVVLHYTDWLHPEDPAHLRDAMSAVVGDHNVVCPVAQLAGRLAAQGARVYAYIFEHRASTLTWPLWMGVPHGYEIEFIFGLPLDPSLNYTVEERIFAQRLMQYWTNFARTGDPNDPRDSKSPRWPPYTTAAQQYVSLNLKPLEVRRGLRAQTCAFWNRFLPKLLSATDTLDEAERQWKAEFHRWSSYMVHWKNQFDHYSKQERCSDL

Butyrylcholinesterase = Butyrylcholinesterase (Rattus norvegicus, UniProt Q9JKC1); assay: Inhibition of rat serum BChE using butyrylthiocholine iodide as substrate measured after 8 mins in presence of AChE inhibitor BW284c51 by Ellman's method
Sequence of Butyrylcholinesterase (Q9JKC1 whole entry): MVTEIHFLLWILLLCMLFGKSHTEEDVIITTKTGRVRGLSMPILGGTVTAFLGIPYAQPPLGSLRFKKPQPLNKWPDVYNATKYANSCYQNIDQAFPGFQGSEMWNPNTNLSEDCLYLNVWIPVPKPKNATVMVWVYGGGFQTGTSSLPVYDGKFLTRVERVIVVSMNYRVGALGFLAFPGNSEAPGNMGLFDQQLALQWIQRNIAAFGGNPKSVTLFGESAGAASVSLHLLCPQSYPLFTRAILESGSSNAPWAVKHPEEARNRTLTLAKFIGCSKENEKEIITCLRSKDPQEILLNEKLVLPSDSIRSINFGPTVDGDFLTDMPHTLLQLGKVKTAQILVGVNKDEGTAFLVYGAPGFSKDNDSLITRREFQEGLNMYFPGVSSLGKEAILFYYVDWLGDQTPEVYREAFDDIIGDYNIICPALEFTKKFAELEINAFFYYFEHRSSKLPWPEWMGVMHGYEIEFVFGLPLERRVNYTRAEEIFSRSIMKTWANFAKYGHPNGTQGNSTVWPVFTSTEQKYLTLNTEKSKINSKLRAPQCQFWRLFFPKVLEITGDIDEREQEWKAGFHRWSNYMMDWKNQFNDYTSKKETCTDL

Acetylcholinesterase [4] = molecular target: T1, Acetylcholinesterase; assay: Inhibition of rat brain AChE using acetylthiocholine iodide as substrate measured after 8 mins in presence of BChE inhibitor ethopropazine by Ellman's method
Cholinesterase [5] = molecular target: Cholinesterase (Homo sapiens, UniProt P06276); assay: Inhibition of BChE (unknown origin)
Sequence of Cholinesterase (Homo sapiens, UniProt P06276) (P06276 whole entry): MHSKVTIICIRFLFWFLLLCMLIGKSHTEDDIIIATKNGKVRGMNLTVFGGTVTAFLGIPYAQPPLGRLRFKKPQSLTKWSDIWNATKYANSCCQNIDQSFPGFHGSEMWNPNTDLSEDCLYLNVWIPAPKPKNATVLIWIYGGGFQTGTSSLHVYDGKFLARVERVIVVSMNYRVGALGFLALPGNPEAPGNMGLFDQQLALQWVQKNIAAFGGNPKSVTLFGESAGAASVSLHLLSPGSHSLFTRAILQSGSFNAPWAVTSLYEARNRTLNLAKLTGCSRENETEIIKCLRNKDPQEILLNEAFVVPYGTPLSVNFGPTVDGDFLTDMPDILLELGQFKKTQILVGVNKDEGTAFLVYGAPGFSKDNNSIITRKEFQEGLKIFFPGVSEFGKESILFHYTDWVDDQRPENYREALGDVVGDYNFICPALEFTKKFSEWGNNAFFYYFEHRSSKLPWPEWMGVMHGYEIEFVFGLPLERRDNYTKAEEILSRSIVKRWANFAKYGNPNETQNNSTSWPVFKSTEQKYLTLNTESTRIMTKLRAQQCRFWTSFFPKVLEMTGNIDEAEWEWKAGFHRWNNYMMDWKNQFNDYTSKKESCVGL

Acetylcholinesterase [6] = molecular target: Acetylcholinesterase (Homo sapiens, UniProt P22303); assay: Inhibition of AChE (unknown origin)
Sequence of Acetylcholinesterase (Homo sapiens, UniProt P22303) (P22303 whole entry): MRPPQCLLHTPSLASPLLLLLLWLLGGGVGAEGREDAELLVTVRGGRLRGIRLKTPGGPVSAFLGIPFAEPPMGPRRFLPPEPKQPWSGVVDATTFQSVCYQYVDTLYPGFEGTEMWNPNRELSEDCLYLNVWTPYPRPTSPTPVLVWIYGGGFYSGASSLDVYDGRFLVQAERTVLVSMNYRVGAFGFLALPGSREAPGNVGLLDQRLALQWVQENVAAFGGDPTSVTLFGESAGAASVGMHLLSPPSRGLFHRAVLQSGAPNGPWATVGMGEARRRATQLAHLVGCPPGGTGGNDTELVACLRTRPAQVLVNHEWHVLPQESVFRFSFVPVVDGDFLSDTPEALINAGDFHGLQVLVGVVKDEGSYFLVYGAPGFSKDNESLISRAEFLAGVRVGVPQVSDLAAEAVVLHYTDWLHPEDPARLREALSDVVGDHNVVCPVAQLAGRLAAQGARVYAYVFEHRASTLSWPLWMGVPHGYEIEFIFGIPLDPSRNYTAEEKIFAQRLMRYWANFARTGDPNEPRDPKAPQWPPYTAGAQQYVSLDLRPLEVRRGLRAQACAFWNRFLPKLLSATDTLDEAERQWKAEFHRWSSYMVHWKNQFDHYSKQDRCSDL

[7] = Selectivity ratio of compound effect for inhibition of horse serum BChE to compound effect for inhibition of electric eel AChE

Sequence of Cholinesterase (Equus caballus, UniProt P81908) (P81908 whole entry): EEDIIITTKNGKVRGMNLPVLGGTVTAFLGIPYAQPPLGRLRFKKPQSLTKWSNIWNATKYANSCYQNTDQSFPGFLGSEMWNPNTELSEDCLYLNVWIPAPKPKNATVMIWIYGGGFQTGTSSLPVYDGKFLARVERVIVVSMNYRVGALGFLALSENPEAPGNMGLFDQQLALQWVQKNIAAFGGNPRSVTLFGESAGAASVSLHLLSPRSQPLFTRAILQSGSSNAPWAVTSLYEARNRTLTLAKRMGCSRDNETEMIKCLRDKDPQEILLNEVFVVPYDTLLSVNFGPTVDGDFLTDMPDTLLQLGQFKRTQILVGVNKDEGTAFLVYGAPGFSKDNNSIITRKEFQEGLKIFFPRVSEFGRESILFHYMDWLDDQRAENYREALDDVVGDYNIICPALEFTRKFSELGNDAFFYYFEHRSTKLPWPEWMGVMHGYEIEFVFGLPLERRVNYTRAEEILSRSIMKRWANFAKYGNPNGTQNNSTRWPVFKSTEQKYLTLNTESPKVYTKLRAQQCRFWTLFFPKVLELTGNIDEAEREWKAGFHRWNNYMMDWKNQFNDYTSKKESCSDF

Structure (SMILES)	IC50 (Cholinesterase [1]) [µM]	IC50 (Acetylcholinesterase [2]) [µM]	further results
CN(CCCC(=O)N1CCN(c2c3c(nc4ccccc24)CCCC3)CC1)Cc1cn(-c2ccnc3cc(Cl)ccc23)nn1	61.1	> 100	
C#CCN(C)Cc1ccc(OC(=O)N(C)C)c2ncccc12			IC50 (Acetylcholinesterase [3]): 0.5 µM
O=C(CCCCc1cn(-c2ccnc3cc(Cl)ccc23)nn1)N1CCN(c2c3c(nc4ccccc24)CCCC3)CC1	> 100	11.1	
C1=CCc2c(nc3ccccc3c2NCCCCCCCCNc2ccnc3ccccc23)C1			IC50 (Butyrylcholinesterase): 0.126 µM; IC50 (Acetylcholinesterase [4]): 0.0088 µM
Clc1ccc2c(-n3cc(CCCN4CCN(c5c6c(nc7ccccc57)CCCC6)CC4)nn3)ccnc2c1	3.61	4.89	
Clc1ccc2c(-n3cc(CCCCN4CCN(c5c6c(nc7cc(Cl)ccc57)CCCC6)CC4)nn3)ccnc2c1	> 100	19.6	
CCN(CC)c1ccc(/C=C/c2cc(N3CCCCC3)c3ccccc3n2)cc1			IC50 (Cholinesterase [5]): 0.2 µM; IC50 (Acetylcholinesterase [6]): 64.1 µM
O=C(CCCCc1cn(-c2ccnc3cc(Cl)ccc23)nn1)N1CCN(c2c3c(nc4cc(Cl)ccc24)CCCC3)CC1	> 100	18.7	
O=C(CCCCc1cn(-c2ccnc3cc(Cl)ccc23)nn1)NCCNc1c2c(nc3cc(Cl)ccc13)CCCC2	6.06	> 100	Selectivity ratio [7]: 2
Clc1ccc2c(-n3cc(CCCCN4CCN(c5c6c(nc7ccccc57)CCCC6)CC4)nn3)ccnc2c1	66.7	10	
